Experimental data from PubChem BioAssay AID1918939 (Molecular Pharmacology Branch, DTP, NCI, 2023).

Test system: 653999-131-R-J2-PDC complex spheroid viability
Experiment: Anticancer human tumor 653999-131-R-J2-PDC patient-derived lung adenocarcinoma cell line growth inhibition
Details: for IC50: curve of first compound; for viability, T/C: stronger effect = lower value
How it was run: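 Drug combinations with the LSD1 inhibitor iadademstat tested on tumor cells co-cultured as spheroids with endothelial cells and mesenchymal stem cells. Concentrations descended in half-log increments from clinical Cmax or 10 microM.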
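Also: spheroids exposed to agents for seven days before readout.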

Cn1ncnc1C1c2n[nH]c(=O)c3cc(F)cc(c23)NC1c1ccc(F)cc1 (stereo not given) + NC1CC1c1ccc(-c2cccc(O)c2)cc1
IC50 (second compound 0.1 µM): > 100 nM | IC50 (second compound 0.316 µM): > 100 nM | IC50 (second compound 1 µM): > 100 nM | IC50 (second compound 3.16 µM): > 100 nM | IC50 (second compound 10 µM): > 100 nM | viability, T/C (second compound 0.1 µM, first compound 0.000316 µM): 90.3% | viability, T/C (second compound 0.1 µM, first compound 0.001 µM): 95.9% | viability, T/C (second compound 0.1 µM, first compound 0.00316 µM): 95% | viability, T/C (second compound 0.1 µM, first compound 0.01 µM): 90.7% | viability, T/C (second compound 0.1 µM, first compound 0.0316 µM): 84.6% | viability, T/C (second compound 0.1 µM, first compound 0.1 µM): 83.4% | viability, T/C (second compound 0.316 µM, first compound 0.000316 µM): 92.2% | viability, T/C (second compound 0.316 µM, first compound 0.001 µM): 96.2% | viability, T/C (second compound 0.316 µM, first compound 0.00316 µM): 101% | viability, T/C (second compound 0.316 µM, first compound 0.01 µM): 91.4% | viability, T/C (second compound 0.316 µM, first compound 0.0316 µM): 82.2% | viability, T/C (second compound 0.316 µM, first compound 0.1 µM): 80% | viability, T/C (second compound 1 µM, first compound 0.000316 µM): 90% | viability, T/C (second compound 1 µM, first compound 0.001 µM): 97.4% | viability, T/C (second compound 1 µM, first compound 0.00316 µM): 99.8% | viability, T/C (second compound 1 µM, first compound 0.01 µM): 90.6% | viability, T/C (second compound 1 µM, first compound 0.0316 µM): 75.9% | viability, T/C (second compound 1 µM, first compound 0.1 µM): 82.6% | viability, T/C (second compound 3.16 µM, first compound 0.000316 µM): 89.7% | viability, T/C (second compound 3.16 µM, first compound 0.001 µM): 94.4% | viability, T/C (second compound 3.16 µM, first compound 0.00316 µM): 90.3% | viability, T/C (second compound 3.16 µM, first compound 0.01 µM): 85.1% | viability, T/C (second compound 3.16 µM, first compound 0.0316 µM): 82.7% | viability, T/C (second compound 3.16 µM, first compound 0.1 µM): 80% | viability, T/C (second compound 10 µM, first compound 0.000316 µM): 85.5% | viability, T/C (second compound 10 µM, first compound 0.001 µM): 88.3% | viability, T/C (second compound 10 µM, first compound 0.00316 µM): 94.8% | viability, T/C (second compound 10 µM, first compound 0.01 µM): 86.3% | viability, T/C (second compound 10 µM, first compound 0.0316 µM): 82.5% | viability, T/C (second compound 10 µM, first compound 0.1 µM): 78.6%
